Values quoted from earlier work, collected in patent US6562869B1, “Nutritional supplement for increased energy and stamina” (Juvenon, Inc., priority 1999, dated 2003).
Read-outs that look alike come from different tables or passages of the source.

Experiments:
[1] = tested on: heart functions
[2] = tested on: oxidative phosphorylation in skeletal muscles and brains; details: patients with mitochondrial cytopathies due to enzyme defects
[3] = tested on: male rats
[4] = tested on: male mice; details: life-long supplementation
[5] = tested on: striatal nerves; details: Q10 diet four weeks before and one week after MPTP
[6] = tested on: human plasma LDL phospholipids; details: healthy Finnish men and women aged 28-77, supplementation
[7] = daily up to 200 mg for 6 to 12 months and 100 mg daily for up to 6 years
[8] = tested on: apoptosis; details: through its action in the mitochondria
[9] = tested on: human atrial tissue
[10] = tested on: senescent myocardium; details: rats
[11] = set-up: dose or concentration left out as unconfirmed; details: woman deficient in Q10
[12] = tested on: cardiac tissue
[13] = tested on: carnitine-acyl-carnitine exchange across the inner mitochondrial membrane
[14] = tested on: aged rats
[15] = tested on: oxidant production; details: carnitine supplementation
[16] = men over 60, 5 days
[17] = older adults 67-80 years, 8 weeks
[18] = tested on: phosphocreatine (PCr)
[19] = tested on: skeletal muscle; details: older individuals aged 40-73, 20 g/day, one week
[20] = tested on: human lymphocytes

SMILES: COC1=C(OC)C(=O)C(C/C=C(\C)CC/C=C(\C)CC/C=C(\C)CC/C=C(\C)CC/C=C(\C)CC/C=C(\C)CC/C=C(\C)CC/C=C(\C)CC/C=C(\C)CCC=C(C)C)=C(C)C1=O [Example Q10, Coenzyme Q10]
- heart functions ([1]; old rats): improve heart functions
- heart functions ([1]; young rats): not significantly affect
- oxidative phosphorylation in skeletal muscles and brains [2]: marked improvement
- Q10 levels in kidney, heart and brain ([3]; Q10 supplementation): not affected
- lifespan ([3]; life-long supplementation, rats): did not prolong or shorten
- plasma and liver Q10 levels ([3]; supplemented rats): 2.6-8.4 times higher
- lifespan [4]: did not prolong or shorten
- dopamine, higher than control diet [5]: 37%
- more dense neurons than control diet [5]: 62%
- peroxyl radical trapping capacity [6]: doubled
- adverse effects [7]: No important adverse effects
- programmed cell death, or apoptosis [8]: appears to block
- tolerance of the senescent myocardium to aerobic and ischemic stress [9]: improves the tolerance
- tolerance of the senescent myocardium to aerobic and ischemic stress [10]: improves the tolerance
- clinical response [11]: rapidly improved
- effects of doxorubicin ([12]; cardiac tissue): blocks the effects of doxorubicin

SMILES: C[N+](C)(C)C[C@H](O)CC(=O)[O-] [L-carnitine]
- age-related dysfunction of carnitine-acyl-carnitine exchange [13]: slow or reverse

SMILES: O=C(O)CCCC[C@@H]1CCSS1 [R-α-lipoic acid]
- ambulatory activity of aged rats ([14]; aged rats): triple
- age-related decline in mitochondrial membrane potential ([14]; supplementation): restore
- age-related decrease in oxygen consumption ([14]; supplementation): reverse
- age-related increase in oxidants ([14]; supplementation): significantly lower
- glutathione and ascorbic acid levels ([14]; supplementation): to youthful levels

SMILES: CC(=O)O[C@H](CC(=O)[O-])C[N+](C)(C)C [acetyl-L-carnitine]
- age-related dysfunction of carnitine-acyl-carnitine exchange [13]: slow or reverse

SMILES: C[N+](C)(C)CC(O)CC(=O)[O-] (centres unmarked) [carnitine]
- cell antioxidants [15]: decreased cell antioxidants markedly
- oxidant production increase [15]: 30%

SMILES: CN(CC(=O)O)C(=N)N [creatine]
- isokinetic performance and body mass [16]: only small increases
- isometric strength [16]: no effect
- 1- and 12-repetitions maxima, effect of creatine supplementation [17]: no beneficial effect
- time to exhaustion ([18]; both groups combined): increased
- resting PCr increase ([18]; middle-aged group (50-year-olds), P<0.05): 30%
- mean initial PCr resynthesis rate ([18]; middle-aged group, P<0.05): increased significantly
- resting PCr increase ([18]; young group (30-year-olds), P<0.05): 15%
- safety (about 1.5 g/day to about 25 g/day for at least a year): safe
- adverse effects (athletes, doses up to 75 grams a day for years, aside from weight gain): without known adverse effects
- skeletal muscle strength and endurance [19]: increased

SMILES: COc1cccc2c1C(=O)c1c(O)c3c(c(O)c1C2=O)C[C@@](O)(C(=O)CO)C[C@@H]3O[C@H]1C[C@H](N)[C@H](O)[C@H](C)O1 [doxorubicin]
- mitochondrial oxidant production [12]: stimulates
- mtDNA deletions in cardiac tissue ([12]; cardiac tissue): marked increase

SMILES: COc1c(O)c(C)c(C/C=C(\C)CC/C=C(\C)CC/C=C(\C)CC/C=C(\C)CC/C=C(\C)CC/C=C(\C)CC/C=C(\C)CC/C=C(\C)CC/C=C(\C)CCC=C(C)C)c(O)c1OC [ubiquinol-10]
- oxidative damage to DNA of human lymphocytes [20]: appears to protect
